{"source": "ChEMBL document CHEMBL1145484", "about": "“Evaluation of the metS and murB loci for antibiotic discovery using targeted antisense RNA expression analysis in Bacillus anthracis” (2007)", "system": "Bacillus anthracis", "assay": "Antibacterial activity against Bacillus anthracis UM23C1-1", "type": "functional", "data": [{"compound": "O=C(O)c1ccc(OCc2nc3ccccc3[nH]2)c(OCc2ccc(Cl)cc2Cl)c1", "values": [{"measurement": "MIC", "value": 2, "unit": "µg/mL"}]}]}
